Test: Laboratory tests of direct dissolution in tensoactives
Format: physicochemical

- Direct dissolution in pure polysorbate 80 (pure polysorbate 80): cannot be dissolved directly
- Direct dissolution in tensoactive aqueous solution (tensoactive aqueous solution (aqueous Solutol HS15 for the solid composition), no organic solvent): cannot be dissolved directly
SMILES: CC(=O)O[C@@]12CO[C@@H]1C[C@H](O)[C@@]1(C)C(=O)[C@H](O)C3=C(C)[C@@H](OC(=O)[C@H](O)[C@@H](NC(=O)OC(C)(C)C)c4ccccc4)C[C@@](O)([C@@H](OC(=O)c4ccccc4)[C@H]21)C3(C)C [trihydrate docetaxel, docetaxel]

— patent publication US20090215883A1, “Pharmaceutical formulation comprising taxane, a solid composition of taxane, a process for preparing said solid composition of taxane, a solubilizing composition of said solid composition of taxane, and a kit for the injectable formulation of taxane” (ERIOCHEM S.A., priority 2006, published 2009)
